Where a name gives a salt, the structure may show the parent alone.
Target: adenosine A2a receptor (Homo sapiens, UniProt P29274)
Assay: adenosine A2a receptor agonist method of Murphree et al (Ki)
Assay type: binding
Conditions: method described by L. J. Murphree et al, Molecular Pharmacology 61, 455-462 (2002)
Experimental: Compounds of formula I and their pharmaceutically acceptable salts are useful as pharmaceuticals. In particular, they activate the adenosine A2a receptor activation, i.e. they act as A2a receptor agonists.
Compounds of the Examples hereinbelow have K; values below 1.0 μM in the above method. For example, the compounds of Examples 6, 10 and 15 have Ki values of 0.004, 0.005, and 0.009 μM respectively.

Sequence of adenosine A2a receptor (P29274 whole entry): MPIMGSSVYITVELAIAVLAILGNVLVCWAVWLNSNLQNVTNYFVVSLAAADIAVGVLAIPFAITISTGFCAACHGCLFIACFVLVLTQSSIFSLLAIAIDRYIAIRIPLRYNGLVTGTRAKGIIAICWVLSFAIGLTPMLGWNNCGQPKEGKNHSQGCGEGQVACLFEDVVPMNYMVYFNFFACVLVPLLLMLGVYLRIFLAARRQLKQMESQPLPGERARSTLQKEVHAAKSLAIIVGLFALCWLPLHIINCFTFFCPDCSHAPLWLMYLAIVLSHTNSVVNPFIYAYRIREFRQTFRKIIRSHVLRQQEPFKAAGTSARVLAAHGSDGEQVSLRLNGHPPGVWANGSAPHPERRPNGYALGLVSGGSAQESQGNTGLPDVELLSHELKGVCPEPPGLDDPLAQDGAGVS

Compound | Ki [nM]
O=C(N[C@H]1C[C@@H](n2cnc3c(NCC(c4ccccc4)c4ccccc4)nc(N[C@H]4CCNC4)nc32)[C@H](O)[C@@H]1O)C1CCC1 [Example 6, Cyclobutanecarboxylic acid {(1S,2R,3S,4R)-4-[6-(2,2-diphenyl-ethylamino)-2-((S)-pyrrolidin-3-ylamino)-purin-9-yl]-2,3-dihydroxy-cyclopentyl}-amide hydrochloride] | 4
O=C(N[C@H]1C[C@@H](n2cnc3c(NCC(c4ccccc4)c4ccccc4)nc(N[C@@H]4CCN(C(=O)NC5CCN(c6ccccn6)CC5)C4)nc32)[C@H](O)[C@@H]1O)C1CCC1 [Example 15, (R)-3-[9-[(1R,2S,3R,4S)-4-(cyclobutanecarbonyl-amino)-2,3-dihydroxy-cyclopentyl]-6-(2,2-diphenyl-ethylamino)-9H-purin-2-ylamino]-pyrrolidine-1-carboxylic acid (3,4,5,6-tetrahydro-2H-[1,2′]bipyridinyl-4-yl)-amide trifluoroacetate] | 9
O=C(Nc1cccnc1)NC1CCN(c2nc(NCC(c3ccccc3)c3ccccc3)c3ncn(C4CC(NC(=O)C5CCC5)C(O)C4O)c3n2)C1 [Example 10, Cyclobutanecarboxylic acid ((1S,2R,3S,4R)-4-{6-(2,2-diphenyl-ethylamino)-2-[(R)-3-(3-pyridin-3-yl-ureido)-pyrrolidin-1-yl]-purin-9-y}-2,3-dihydroxy-cyclopentyl)-amide] | 5

Source: US20090281127A1, “Organic Compounds” (priority 2006, published 2009)
